The results in this text go back to ChEMBL document CHEMBL6087402, “Design, synthesis, and in vitro and in vivo biological evaluation of dihydroartemisinin derivatives as potent anti-cancer agents with ferroptosis-inducing and apoptosis-activating properties” (Eur J Med Chem, 2025).

Structures are written as SMILES. Active and inactive are the calls of the source. The calls are words filed in the database; no cut-off is given here. Peptide text beside a SMILES is read from it. * marks the point of attachment. Cbz = O=C(OCc1ccccc1)*; CH2F = FC*

One data set deals with Bel-7402. Nature of the data set: Anti-proliferative activity against human Bel-7402 cells incubated for 72 hrs by MTT assay. Format: functional, cell-based. As to conditions: Bel-7402, 72 h. On the technique in general: Tetrazolium assays rely on reduction of a dye to a coloured formazan, in cell work by metabolically active cells.
The next data set relates to SW-620. Nature of the data set: Anti-proliferative activity against human SW620 cells incubated for 72 hrs by MTT assay. The data set is classed as functional, cell-based. To be noted: SW-620, 72 h.
Data set [1] in a line: Selectivity index, ratio of IC50 for human L02 cells to IC50 for human Bel-7402 cells. Format: toxicity. As to conditions: L02 cells versus Bel-7402 cells, read-out: Ratio IC50.
In another data set the test system is A549. In words: Anti-proliferative activity against human A549 cells incubated for 72 hrs by MTT assay. Format: functional, cell-based. To be noted: A549, 72 h.
Data set [2] can be described thus: Selectivity index, ratio of IC50 for human L02 cells to IC50 for human SW620 cells. As to conditions: L02 cells versus SW620 cells, read-out: Ratio IC50. The data set is classed as toxicity.
Data set [3] is described as follows: Selectivity index, ratio of IC50 for human L02 cells to IC50 for human A549 cells. The data set is classed as toxicity. As to conditions: L02 cells versus A549 cells, read-out: Ratio IC50.
The nature of data set [4]: Selectivity index, ratio of IC50 for human L02 cells to IC50 for human HCT-116 cells. The data set is classed as toxicity. As to conditions: L02 cells versus HCT-116 cells, read-out: Ratio IC50.
In data set [5] the test system is HCT-116. In words: Anti-proliferative activity against human HCT-116 cells incubated for 72 hrs by MTT assay. As to conditions: HCT-116, 72 h. Format: functional, cell-based.
The nature of data set [6]: Anti-proliferative activity against human L02 cells incubated for 72 hrs by MTT assay. The data set is classed as toxicity, cell-based.
Data set [7] has as its system HCT-116. In words: Cytotoxicity against human HCT-116 cells assessed as cell viability upto 20 uM. Format: functional, cell-based.
Data set [8] deals with HCT-116. In words: Cytotoxicity against human HCT-116 cells assessed as cell viability at 10 uM. Format: functional, cell-based.
The subject of data set [9] is HCT-116. Nature of the data set: Cytotoxicity against human HCT-116 cells assessed as cell viability at 5 uM. The data set is classed as functional, cell-based.
Data set [10] concerns HCT-116. Nature of the data set: Inhibition of cell proliferation in human HCT-116 cells at 3 uM incubated for 12 hrs by EdU assay (reference value: 48.14 %). The data set is classed as functional.

Take `COc1ccc(NC(=O)OC2O[C@@H]3O[C@@]4(C)CC[C@@H]5[C@H](C)CC[C@@H]([C@H]2C)[C@@]35OO4)cc1` (stereo not given in full): the IC50 amounted to 8.3 µM in the data set with Bel-7402, 1.06 µM with SW-620, 5.8 µM with A549 and 0.92 µM in the data set on HCT-116 [5]. Further, the selectivity ratio in [1] was determined as 4.46; in [2], 34.9; in data set [3], 6.38; in data set [4] it was 40.2. This compound returned an IC50 at 72 h in [6] of 37 µM.

As to `C[C@@H]1CC[C@H]2[C@@H](C)C(OC(=O)Nc3ccccc3)O[C@@H]3O[C@@]4(C)CC[C@H]1[C@]32OO4` (stereo not given in full), the IC50 in the data set with Bel-7402 turned out to be 4.62 µM; in the data set with SW-620, 1.34 µM; in the data set with A549, 4.18 µM; with HCT-116 [5] it was 0.72 µM. Besides, the selectivity ratio in data set [1] worked out at 2.9; in data set [2], 9.99; in [3] it was 3.2; in data set [4], 18.6. This compound also displayed a half-maximal inhibitory concentration (IC50) at 72 h in data set [6] of 13.4 µM.

In the case of `CC(C)[C@H](NC(=O)OCc1ccccc1)C(=O)N[C@@H](C)C(=O)N[C@@H](CC(=O)O)C(=O)CF` (Cbz-Val-Ala-Asp-CH2F), the outcome with HCT-116 [7] was inactive.

For `CCCNC(=O)OC1O[C@@H]2O[C@@]3(C)CC[C@@H]4[C@H](C)CC[C@@H]([C@H]1C)[C@@]24OO3` (stereo not given in full), the 50% inhibitory concentration (IC50) in the data set with Bel-7402, in the data set on SW-620, in the data set on A549 and with HCT-116 [5] was over 10 µM in each case. Besides, the selectivity ratio was under 1.21 in [1], 2.78 in [2], 13.6 in data set [3] and 25.8 in [4]. Besides, the 50% inhibitory concentration (IC50) at 72 h in data set [6] was 12.1 µM.

For the compound `Cc1ccc(NC(=O)OC2O[C@@H]3O[C@@]4(C)CC[C@@H]5[C@H](C)CC[C@@H]([C@H]2C)[C@@]35OO4)cc1` (stereo not given in full), the IC50 in the data set on Bel-7402 came to 8.1 µM; with SW-620 it was 0.79 µM; in the data set with A549, 2 µM; in the data set on HCT-116 [5] it was 0.59 µM. The selectivity ratio in data set [1] was determined as 1.93; in data set [2], 19.8; in data set [3] it was 7.82; in data set [4], 26.5. Moreover, 15.6 µM corresponded to half-maximal inhibition in data set [6] (IC50 at 72 h).

Consider `CCOC(=O)c1ccc(NC2CCCCC2)c(N)c1`, for which the result in the data set with HCT-116 [8] was inactive.

`CC(=O)N(O)CCCCCNC(=O)CCC(=O)N(O)CCCCCNC(=O)CCC(=O)N(O)CCCCCN`: in the data set on HCT-116 [9], the outcome was inactive.

Take `C[C@H]1[C@@H](O)O[C@@H]2O[C@@]3(C)CC[C@H]4[C@H](C)CC[C@@H]1[C@@]24OO3` [ARTENIMOL]: the 50% inhibitory concentration (IC50) with Bel-7402 turned out to be 43.2 µM; in the data set with SW-620, 6.61 µM; in the data set with A549, 19.4 µM; in the data set on HCT-116 [5], 5.1 µM. The selectivity ratio stood at 0.2 in data set [1], 1.28 in data set [2], 0.43 in [3] and 1.65 in data set [4]. In the data set with HCT-116 [10], this compound had an inhibition at 3 µM of 24.5%. The IC50 at 72 h in [6] was 8.43 µM.

Regarding `C[C@@H]1CC[C@H]2[C@@H](C)C(OC(=O)Nc3ccc(F)cc3)O[C@@H]3O[C@@]4(C)CC[C@H]1[C@]32OO4` (stereo not given in full), the half-inhibitory concentration (IC50) with Bel-7402 amounted to 8.7 µM; with SW-620, 1.01 µM; in the data set with A549, 3.2 µM; in the data set with HCT-116 [5], 0.51 µM. Moreover, the selectivity ratio in data set [1] turned out to be 1.05; in [2] it was 9.04; in data set [3], 2.85; in [4] it was 17.9. For the same compound, in data set [6], the IC50 at 72 h is 9.13 µM.

With `C[C@@H]1CC[C@H]2[C@@H](C)C(OC(=O)NC(=O)c3ccccc3)O[C@@H]3O[C@@]4(C)CC[C@H]1[C@]32OO4` (stereo not given in full), the IC50 in the data set with Bel-7402 is over 10 µM; in the data set with SW-620, over 10 µM; in the data set with A549, over 10 µM; in the data set with HCT-116 [5], 5.48 µM.

For `C[C@@H]1CC[C@H]2[C@@H](C)C(OC(=O)CCC(=O)NCCc3c[nH]c4ccc(Cl)cc34)O[C@@H]3O[C@@]4(C)CC[C@H]1[C@]32OO4` (stereo not given in full), the IC50 with Bel-7402 is over 10 µM; with SW-620 it was 1.73 µM; in the data set on A549, 7.25 µM; with HCT-116 [5], 4.99 µM.

As to `COc1cc(-n2cc(C(=O)OC3O[C@@H]4O[C@@]5(C)CC[C@@H]6[C@H](C)CC[C@@H]([C@H]3C)[C@@]46OO5)nn2)cc(OC)c1OC` (stereo not given in full), the IC50 in the data set with Bel-7402 is over 10 µM; with SW-620, 1.9 µM; with A549, over 10 µM; in the data set with HCT-116 [5], 4.32 µM.

As a reminder, the IC50 is the concentration that gives 50% inhibition. A low value points to greater potency. Broadly, the inhibition is the percentage by which the read-out fell short of the control. Read a low inhibition as a weak effect.
